According to ChEMBL document CHEMBL1154600, “Knowledge-based characterization of similarity relationships in the human protein-tyrosine phosphatase family for rational inhibitor design” (J Med Chem, 2009):

Key:
[1] = target: Receptor-type tyrosine-protein phosphatase beta (Homo sapiens, UniProt P23467); assay: Inhibition of PTPRB
[2] = target: T1, Receptor-type tyrosine-protein phosphatase C (Homo sapiens, UniProt P08575); assay: Inhibition of PTPRC
T1 sequence (P08575 whole entry): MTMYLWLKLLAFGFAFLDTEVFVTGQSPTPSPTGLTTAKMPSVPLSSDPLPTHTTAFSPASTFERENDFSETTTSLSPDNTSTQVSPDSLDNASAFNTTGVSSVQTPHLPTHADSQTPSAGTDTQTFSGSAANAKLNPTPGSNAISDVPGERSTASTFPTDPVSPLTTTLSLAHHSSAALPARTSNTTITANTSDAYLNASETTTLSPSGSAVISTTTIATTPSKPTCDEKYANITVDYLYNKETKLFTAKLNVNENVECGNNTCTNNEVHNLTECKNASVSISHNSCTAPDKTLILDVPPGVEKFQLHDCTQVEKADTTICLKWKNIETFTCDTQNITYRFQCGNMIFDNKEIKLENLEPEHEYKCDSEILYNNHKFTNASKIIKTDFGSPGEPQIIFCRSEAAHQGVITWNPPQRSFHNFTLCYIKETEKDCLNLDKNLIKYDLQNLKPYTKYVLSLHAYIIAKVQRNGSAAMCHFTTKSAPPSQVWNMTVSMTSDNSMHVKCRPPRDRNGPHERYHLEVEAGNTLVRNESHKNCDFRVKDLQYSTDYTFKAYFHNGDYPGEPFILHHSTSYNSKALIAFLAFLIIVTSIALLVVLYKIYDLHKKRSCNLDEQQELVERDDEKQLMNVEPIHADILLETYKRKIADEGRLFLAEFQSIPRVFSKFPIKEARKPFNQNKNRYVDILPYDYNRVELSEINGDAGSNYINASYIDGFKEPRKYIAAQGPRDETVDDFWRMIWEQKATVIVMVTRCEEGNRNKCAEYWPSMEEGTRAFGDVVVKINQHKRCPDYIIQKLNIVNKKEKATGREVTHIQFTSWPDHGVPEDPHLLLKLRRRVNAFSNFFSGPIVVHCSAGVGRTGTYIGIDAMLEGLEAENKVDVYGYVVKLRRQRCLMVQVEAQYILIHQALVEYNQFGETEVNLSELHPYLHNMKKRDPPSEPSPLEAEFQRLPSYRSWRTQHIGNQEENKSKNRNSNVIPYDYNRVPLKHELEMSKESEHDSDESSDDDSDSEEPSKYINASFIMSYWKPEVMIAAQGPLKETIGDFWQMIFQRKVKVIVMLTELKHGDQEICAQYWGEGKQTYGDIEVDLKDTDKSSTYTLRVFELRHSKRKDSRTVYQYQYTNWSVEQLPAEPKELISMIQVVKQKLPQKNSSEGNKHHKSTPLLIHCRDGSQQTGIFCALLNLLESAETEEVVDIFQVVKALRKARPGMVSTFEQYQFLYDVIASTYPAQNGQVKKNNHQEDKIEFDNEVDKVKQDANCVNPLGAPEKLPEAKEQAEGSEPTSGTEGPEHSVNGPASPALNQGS

[3] = target: Tyrosine-protein phosphatase non-receptor type 6 (Homo sapiens, UniProt P29350)
[4] = target: Receptor-type tyrosine-protein phosphatase epsilon (Homo sapiens, UniProt P23469)
[5] = target: T2, Tyrosine-protein phosphatase non-receptor type 2 (Homo sapiens, UniProt P17706)
T2 sequence (P17706 whole entry): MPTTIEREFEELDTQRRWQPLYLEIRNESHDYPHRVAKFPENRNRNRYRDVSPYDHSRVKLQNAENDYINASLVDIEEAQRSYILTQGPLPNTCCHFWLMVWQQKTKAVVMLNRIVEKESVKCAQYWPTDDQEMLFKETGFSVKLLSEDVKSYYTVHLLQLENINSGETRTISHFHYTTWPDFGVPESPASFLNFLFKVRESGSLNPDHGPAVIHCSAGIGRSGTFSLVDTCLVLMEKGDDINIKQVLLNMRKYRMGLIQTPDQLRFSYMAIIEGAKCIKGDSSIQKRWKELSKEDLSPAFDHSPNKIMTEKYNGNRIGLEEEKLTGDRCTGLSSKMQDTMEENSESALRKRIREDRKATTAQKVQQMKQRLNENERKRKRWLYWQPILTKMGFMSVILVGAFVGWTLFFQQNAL

[6] = target: Receptor-type tyrosine-protein phosphatase F (Homo sapiens, UniProt P10586); assay: Inhibition of PTPRF
[7] = target: Receptor-type tyrosine-protein phosphatase alpha (Homo sapiens, UniProt P18433); assay: Inhibition of PTPRA
[8] = target: Tyrosine-protein phosphatase non-receptor type 2 (Homo sapiens) (UniProt P17706); assay: Inhibition of PTPN2

Tyrosine-protein phosphatase non-receptor type 6, sequence (P29350 whole entry): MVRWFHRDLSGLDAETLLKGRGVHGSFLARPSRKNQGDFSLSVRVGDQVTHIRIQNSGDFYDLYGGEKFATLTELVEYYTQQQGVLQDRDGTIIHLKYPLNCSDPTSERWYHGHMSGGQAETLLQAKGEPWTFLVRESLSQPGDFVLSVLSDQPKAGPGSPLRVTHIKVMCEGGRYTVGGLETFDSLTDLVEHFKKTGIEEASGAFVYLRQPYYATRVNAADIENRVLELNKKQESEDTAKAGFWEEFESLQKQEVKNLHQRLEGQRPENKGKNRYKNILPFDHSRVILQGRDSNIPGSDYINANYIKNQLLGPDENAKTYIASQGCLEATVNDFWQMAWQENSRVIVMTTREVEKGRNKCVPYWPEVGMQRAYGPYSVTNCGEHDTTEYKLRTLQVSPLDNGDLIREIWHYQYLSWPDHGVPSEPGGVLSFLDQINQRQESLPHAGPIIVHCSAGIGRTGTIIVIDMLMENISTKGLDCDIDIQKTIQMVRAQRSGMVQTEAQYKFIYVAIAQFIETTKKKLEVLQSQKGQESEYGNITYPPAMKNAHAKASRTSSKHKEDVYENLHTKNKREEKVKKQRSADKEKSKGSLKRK
Receptor-type tyrosine-protein phosphatase alpha, sequence (P18433 whole entry): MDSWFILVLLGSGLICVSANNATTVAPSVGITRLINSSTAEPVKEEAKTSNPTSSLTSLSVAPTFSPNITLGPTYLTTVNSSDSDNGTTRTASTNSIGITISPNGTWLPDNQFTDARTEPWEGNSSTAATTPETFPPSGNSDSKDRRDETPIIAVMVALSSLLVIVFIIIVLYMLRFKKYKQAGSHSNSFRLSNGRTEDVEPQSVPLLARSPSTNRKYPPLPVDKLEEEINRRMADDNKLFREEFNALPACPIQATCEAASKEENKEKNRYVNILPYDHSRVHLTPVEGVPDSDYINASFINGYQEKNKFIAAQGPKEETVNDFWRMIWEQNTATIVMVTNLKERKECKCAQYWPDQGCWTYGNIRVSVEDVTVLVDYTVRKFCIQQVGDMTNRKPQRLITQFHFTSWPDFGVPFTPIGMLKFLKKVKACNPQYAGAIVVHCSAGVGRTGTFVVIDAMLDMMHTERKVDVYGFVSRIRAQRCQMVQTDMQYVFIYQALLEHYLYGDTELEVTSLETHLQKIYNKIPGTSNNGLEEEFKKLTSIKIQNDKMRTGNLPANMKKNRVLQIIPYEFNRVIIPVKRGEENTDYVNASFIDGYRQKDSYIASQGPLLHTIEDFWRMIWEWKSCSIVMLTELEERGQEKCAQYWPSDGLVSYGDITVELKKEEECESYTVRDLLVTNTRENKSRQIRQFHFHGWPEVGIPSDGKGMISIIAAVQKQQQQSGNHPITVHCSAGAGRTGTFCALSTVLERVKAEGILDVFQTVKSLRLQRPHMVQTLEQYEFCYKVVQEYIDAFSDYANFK
Receptor-type tyrosine-protein phosphatase epsilon, sequence (P23469 whole entry): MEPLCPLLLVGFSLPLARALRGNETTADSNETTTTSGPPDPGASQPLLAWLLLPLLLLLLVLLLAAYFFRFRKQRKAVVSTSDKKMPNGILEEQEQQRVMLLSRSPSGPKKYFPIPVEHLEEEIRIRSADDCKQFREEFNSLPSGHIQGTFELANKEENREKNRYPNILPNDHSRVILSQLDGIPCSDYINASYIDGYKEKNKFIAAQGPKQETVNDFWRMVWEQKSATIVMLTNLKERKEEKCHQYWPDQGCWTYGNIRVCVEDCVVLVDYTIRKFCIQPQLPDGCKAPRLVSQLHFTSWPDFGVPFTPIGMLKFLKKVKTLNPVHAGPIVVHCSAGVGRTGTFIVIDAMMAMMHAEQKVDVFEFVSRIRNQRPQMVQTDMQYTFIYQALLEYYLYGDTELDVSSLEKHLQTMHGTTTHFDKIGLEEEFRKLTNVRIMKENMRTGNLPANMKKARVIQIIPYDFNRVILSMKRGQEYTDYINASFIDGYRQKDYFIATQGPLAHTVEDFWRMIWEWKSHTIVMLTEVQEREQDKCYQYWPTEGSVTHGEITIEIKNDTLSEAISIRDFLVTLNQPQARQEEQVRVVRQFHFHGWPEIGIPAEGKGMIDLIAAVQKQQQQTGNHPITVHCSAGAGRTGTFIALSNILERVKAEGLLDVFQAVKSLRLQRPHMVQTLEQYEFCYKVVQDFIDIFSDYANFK
Receptor-type tyrosine-protein phosphatase beta, sequence (P23467 whole entry): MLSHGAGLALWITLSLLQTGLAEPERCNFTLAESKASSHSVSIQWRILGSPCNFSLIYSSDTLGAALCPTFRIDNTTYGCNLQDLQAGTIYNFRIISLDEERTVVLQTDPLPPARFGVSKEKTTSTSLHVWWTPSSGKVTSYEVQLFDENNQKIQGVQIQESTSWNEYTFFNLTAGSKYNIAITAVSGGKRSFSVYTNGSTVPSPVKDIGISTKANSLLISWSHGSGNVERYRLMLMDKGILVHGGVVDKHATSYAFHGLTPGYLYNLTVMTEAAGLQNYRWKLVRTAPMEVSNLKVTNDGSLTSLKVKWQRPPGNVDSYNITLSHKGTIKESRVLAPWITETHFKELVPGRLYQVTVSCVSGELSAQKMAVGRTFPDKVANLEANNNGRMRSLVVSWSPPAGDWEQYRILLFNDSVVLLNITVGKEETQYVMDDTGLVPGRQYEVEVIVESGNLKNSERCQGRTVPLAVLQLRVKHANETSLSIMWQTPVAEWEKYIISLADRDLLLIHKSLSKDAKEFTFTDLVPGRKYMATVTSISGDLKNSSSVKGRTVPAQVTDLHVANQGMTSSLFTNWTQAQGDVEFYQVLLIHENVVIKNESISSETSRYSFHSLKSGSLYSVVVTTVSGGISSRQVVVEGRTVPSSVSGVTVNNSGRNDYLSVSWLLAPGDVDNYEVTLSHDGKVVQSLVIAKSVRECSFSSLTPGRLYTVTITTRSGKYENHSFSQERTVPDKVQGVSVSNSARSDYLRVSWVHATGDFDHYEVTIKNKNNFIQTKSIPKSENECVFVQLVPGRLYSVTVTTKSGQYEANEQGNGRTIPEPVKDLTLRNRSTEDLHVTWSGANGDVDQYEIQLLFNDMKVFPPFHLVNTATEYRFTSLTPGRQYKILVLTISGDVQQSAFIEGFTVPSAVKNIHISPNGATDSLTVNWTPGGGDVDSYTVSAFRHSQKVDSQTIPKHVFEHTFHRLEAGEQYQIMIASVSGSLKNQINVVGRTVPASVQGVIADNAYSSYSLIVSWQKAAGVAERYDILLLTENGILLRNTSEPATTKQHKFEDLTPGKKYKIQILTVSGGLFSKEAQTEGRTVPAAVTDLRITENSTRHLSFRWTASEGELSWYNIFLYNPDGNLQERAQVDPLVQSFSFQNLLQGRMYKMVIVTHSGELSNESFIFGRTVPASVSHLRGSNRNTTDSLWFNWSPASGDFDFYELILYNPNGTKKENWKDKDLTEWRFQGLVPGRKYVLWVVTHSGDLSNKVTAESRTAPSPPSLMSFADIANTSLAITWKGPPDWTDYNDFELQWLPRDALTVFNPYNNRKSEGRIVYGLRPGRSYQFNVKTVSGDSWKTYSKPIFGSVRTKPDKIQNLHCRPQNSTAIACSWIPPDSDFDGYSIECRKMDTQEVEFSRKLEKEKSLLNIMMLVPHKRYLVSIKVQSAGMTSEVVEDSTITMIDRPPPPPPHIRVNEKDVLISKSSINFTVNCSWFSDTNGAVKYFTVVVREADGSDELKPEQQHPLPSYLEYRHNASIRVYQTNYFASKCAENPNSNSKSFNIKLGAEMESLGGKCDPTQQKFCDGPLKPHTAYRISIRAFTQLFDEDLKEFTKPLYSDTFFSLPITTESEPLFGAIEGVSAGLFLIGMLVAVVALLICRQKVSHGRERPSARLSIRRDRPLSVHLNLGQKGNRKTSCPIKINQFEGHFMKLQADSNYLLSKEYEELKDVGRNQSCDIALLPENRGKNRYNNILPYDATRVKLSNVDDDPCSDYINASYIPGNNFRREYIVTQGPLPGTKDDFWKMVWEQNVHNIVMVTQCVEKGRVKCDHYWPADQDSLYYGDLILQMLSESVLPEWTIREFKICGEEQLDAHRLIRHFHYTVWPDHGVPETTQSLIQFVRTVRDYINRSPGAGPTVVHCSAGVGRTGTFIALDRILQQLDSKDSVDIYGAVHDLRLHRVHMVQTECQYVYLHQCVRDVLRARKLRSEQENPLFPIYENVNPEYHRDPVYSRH

Row | Ki [1] | Ki [2] | Ki [3] | Ki [4] | Ki [5] | Ki [6] | Ki [7] | SMILES | Ki [8]
1 | 19 µM | 41 µM | 100 µM | – | – | – | – | O=C(O)C(=O)Nc1sc2c(c1C(=O)O)CCCC2 | –
2 | 33 µM | – | 510 µM | 130 µM | – | – | – | O=C(O)C(=O)Nc1ccccc1C(=O)O | –
3 | 560 µM | 59 µM | > 2000 µM | 1100 µM | 0.29 µM | – | – | O=C(O)C(=O)Nc1sc2c(c1C(=O)O)CCNC2 | –
4 | – | – | – | – | – | > 500 µM | – | O=C(O)COc1c(C(=O)O)sc(-c2ccccc2)c1Br | –
5 | – | – | – | – | – | > 1000 µM | – | CC1(C)CC(Nc2cccc(-c3sc(C(=O)O)c(OCC(=O)O)c3Br)c2)CC(C)(C)C1 | –
6 | – | 260 µM | – | 360 µM | 58 µM | – | > 2000 µM | O=C(O)C(=O)Nc1ccsc1C(=O)O | –
7 | 17 µM | 49 µM | 80 µM | 33 µM | 14 µM | – | – | O=C(O)C(=O)Nc1ccc(I)cc1C(=O)O | –
8 | 3.6 µM | 20 µM | 28 µM | 33 µM | 8 µM | 450 µM | 180 µM | O=C(O)C(=O)Nc1ccc2cc[nH]c2c1C(=O)O | –
9 | 6 µM | 56 µM | 16 µM | 66 µM | 14 µM | 550 µM | 800 µM | O=C(O)C(=O)Nc1cc2[nH]ccc2cc1C(=O)O | –
10 | – | 210 µM | – | 740 µM | 62 µM | – | – | O=C(O)C(=O)Nc1sccc1C(=O)O | –
11 | 14 µM | 37 µM | 94 µM | 45 µM | 9.9 µM | 68 µM | 190 µM | O=C(O)C(=O)Nc1cc2ccccc2cc1C(O)O | –
12 | – | > 1250 µM | – | – | 9.2 µM | 1100 µM | – | O=C(O)COc1c(C(=O)O)sc2c1sc1ccccc12 | 4.1 µM

Row | SMILES | Ki [1] | Ki [2] | Ki [3] | Ki [4] | Ki [5] | Ki [6] | Ki [7] | Ki [8]
13 | O=C(O)C(=O)Nc1sc2c(c1C(=O)O)CCO[C@H]2COC1=NS(=O)(=O)c2ccccc21 | 21 µM | 489 µM | 289 µM | > 500 µM | 0.6 µM | 176 µM | > 500 µM | 1.1 µM
